# According to patent publication US12018021B2 (UCB Biopharma SRL, priority 2018, dated 2024):
# Biological target: IgE-Tb / sFcεRIα-Y131A-AF488 (Homo sapiens, UniProt P01854, N146Q/N252Q)
# Assay: IgE-Tb / sFcεRIα-Y131A-AF488 FRET assay (protocol for examples 234 to 501)
# Assay type: binding
# Conditions: examples 234 to 501: compound with IgE-Tb 30 minutes before sFcεRIα-Y131A-AF488, incubated 18 hours at room temperature; read-out: Y131A FRET IC50 range
# Protocol: For examples 234 to 501, the assay was conducted according to the following: Each assay reaction was conducted in a volume of 25 μl in a 384-well half-volume plate. 10 point compound serial dilutions (3-fold) were generated in DMSO at a concentration of ×50 that of the final assay concentration (FAC). Compound solutions were then prepared by diluting 10-fold in assay buffer. For the assay, 5l of diluted compound was added to 10 μl of IgE-Tb and incubated for 30 minutes before the addition of 10 μ[…]. FRET reagents FACs were 5 nM IgE-Tb, 25 nM […]. Usually the top FAC of compound in the assay was 10 μM. The final DMSO concentration was 2%. […] The maximum FRET signal (MAX) was measured in wells containing FRET reagents but no compound. The assay was incubated for 18 hours at room temperature, protected from light and evaporation, and with gentle agitation. Measurement of FRET for each well was carried out by exciting at 337 nm and measuring emission at 490/520 nm using a PHERAstar FSX plate reader (BMG Labtech). FRET ratio was calculated as follows: Emission at 520/7Emission at 490×1000. The FRET ratio was used for the data analysis. […] Z' above 0.5 was considered a good assay. Background signal (MIN) was subtracted from all wells. […] Percent inhibition was plotted against compound concentration. IC50 values for each compound were determined using four parameter logistic fit model using the XLFIT5 software package.
# Sequence of IgE-Tb / sFcεRIα-Y131A-AF488 (P01854 whole entry N146Q/N252Q): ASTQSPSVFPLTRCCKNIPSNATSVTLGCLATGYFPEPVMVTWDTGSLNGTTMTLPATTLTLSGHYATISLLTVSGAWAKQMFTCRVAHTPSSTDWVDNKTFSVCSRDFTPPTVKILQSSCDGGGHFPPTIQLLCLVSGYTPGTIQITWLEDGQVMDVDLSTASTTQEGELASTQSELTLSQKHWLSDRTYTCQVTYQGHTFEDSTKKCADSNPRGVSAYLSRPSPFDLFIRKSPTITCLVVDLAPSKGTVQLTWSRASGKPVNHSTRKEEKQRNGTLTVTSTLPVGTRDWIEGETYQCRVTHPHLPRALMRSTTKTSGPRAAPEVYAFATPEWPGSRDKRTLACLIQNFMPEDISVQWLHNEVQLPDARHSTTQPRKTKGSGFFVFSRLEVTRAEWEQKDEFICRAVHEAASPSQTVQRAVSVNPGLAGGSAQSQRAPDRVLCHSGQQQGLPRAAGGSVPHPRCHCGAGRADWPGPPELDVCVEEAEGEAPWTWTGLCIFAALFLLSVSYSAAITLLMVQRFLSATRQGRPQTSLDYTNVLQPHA
row,SMILES,IC50 [nM]
1,"Cc1ccc2nc(N[C@H]3CCc4sc(NC(=O)C5CC5)c(C(=O)NCC5CC5)c4C3)sc2n1 [Example 298, (5S)-2-(cyclopropanecarbonylamino)-N-(cyclopropylmethyl)-5-[(5-methylthiazolo[5,4-b]pyridin-2-yl)amino]-4,5,6,7-tetrahydrobenzothiophene-3-carboxamide]",< 1000
2,"Cn1nc(C(F)F)cc1Nc1nncn1[C@H]1CCc2sc(NC(=O)[C@H]3CC34CC4)c(C(=O)NCC3CC3)c2C1 [Example 416, (5S)—N-(Cyclopropylmethyl)-5-[3-[[5-(difluoromethyl)-2-methyl-pyrazol-3-yl]amino]-1,2,4-triazol-4-yl]-2-[[(2S)-spiro[2.2]pentane-2-carbonyl]amino]-4,5,6,7-tetrahydrobenzothiophene-3-carboxamide]",< 1000
3,"CC1CC1CNC(=O)c1c(NC(=O)C2CC2)sc2c1C[C@@H](n1cnnc1Nc1cc(OC(F)F)nn1C)CC2 (stereo partly drawn) [Example 453, (5S)-2-(cyclopropanecarbonylamino)-5-[3-[[5-(difluoromethoxy)-2-methylpyrazol-3-yl]amino]-1,2,4-triazol-4-yl]-N-[(2-methylcyclopropyl)methyl]-4,5,6,7-tetrahydro-1-benzothiophene-3-carboxamide]",< 1000
4,"Cn1nc(C(F)F)cc1Nc1nncn1[C@H]1CCc2sc(NC(=O)[C@H]3CC34CC4)c(C(=O)NC[C@@H]3CC3(F)F)c2C1 (single isomer, unassigned) [Example 409]",< 1000
5,"Cn1nc(OC(F)F)cc1Nc1nncn1[C@H]1CCc2sc(NC(=O)[C@H]3C[C@H]3F)c(C(=O)NCC3CC3)c2C1 (single isomer, unassigned) [Example 349]",< 1000
6,"Cn1nc(OC(F)F)cc1Nc1nncn1[C@H]1CCc2sc(NC(=O)C3CC3)c(C(=O)NC[C@H]3C[C@H]3F)c2C1 [Example 461, (5S)-2-(cyclopropanecarbonylamino)-5-[3-[[5-(difluoromethoxy)-2-methylpyrazol-3-yl]amino]-1,2,4-triazol-4-yl]-N-[[(1R,2R)-2-fluorocyclopropyl]methyl]-4,5,6,7-tetrahydro-1-benzothiophene-3-carboxamide]",< 1000
7,"O=C1CC(Nc2nncn2[C@H]2CCc3sc(NC(=O)C4CC4)c(C(=O)NCC4CC4)c3C2)CN1 (single isomer, unassigned) [Example 271, (5S)-2-(cyclopropanecarbonylamino)-N-(cyclopropylmethyl)-5-[3-[[(3R*)-5-oxopyrrolidin-3-yl]amino]-1,2,4-triazol-4-yl]-4,5,6,7-tetrahydrobenzothiophene-3-carboxamide]",< 1000
8,"Cn1nc(OC(F)F)cc1Nc1nncn1[C@H]1CCc2sc(NC(=O)[C@H]3C[C@H](F)C3)c(C(=O)N[C@H]3C[C@H](F)C3)c2C1 [Example 487, (5S)-5-[3-[[5-(difluoromethoxy)-2-methylpyrazol-3-yl]amino]-1,2,4-triazol-4-yl]-2-[trans-(3-fluorocyclobutanecarbonyl)amino]-N-(trans-3-fluorocyclobutyl)-4,5,6,7-tetrahydro-1-benzothiophene-3-carboxamide]",< 1000
9,"CC(C)C(=O)Nc1sc2c(c1C(=O)NCC1CC1)C[C@@H](n1cnnc1Nc1cc(C(F)F)nn1C)CC2 [Example 360, (5S)—N-(cyclopropylmethyl)-5-[3-[[5-(difluoromethyl)-2-methylpyrazol-3-yl]amino]-1,2,4-triazol-4-yl]-2-(2-methylpropanoylamino)-4,5,6,7-tetrahydro-1-benzothiophene-3-carboxamide]",< 1000
10,"Cn1nc(OC(F)F)cc1Nc1nncn1[C@H]1CCc2sc(NC(=O)C3CC3)c(C(=O)NC[C@@H]3CC3(F)F)c2C1 (single isomer, unassigned) [Example 460]",< 1000
11,"C[C@H]1c2c(sc(NC(=O)C3CC3)c2C(=O)NCC2CC2)CC[C@@H]1n1cnnc1Nc1cc(C(F)(F)F)nn1C (single isomer, unassigned) [Example 422, (4R*,5R*)-2-(cyclopropanecarbonylamino)-N-(cyclopropylmethyl)-4-methyl-5-[3-[[2-methyl-5-(trifluoromethyl)pyrazol-3-yl]amino]-1,2,4-triazol-4-yl]-4,5,6,7-tetrahydrobenzothiophene-3-carboxamide]",< 1000
12,"COc1cc(Nc2nncn2[C@H]2CCc3sc(NC(=O)C4CC4)c(C(=O)NCC4CC4)c3C2)n(C)n1 [Example 337, (5S)-2-(cyclopropanecarbonylamino)-N-(cyclopropylmethyl)-5-[3-[(5-methoxy-2-methylpyrazol-3-yl)amino]-1,2,4-triazol-4-yl]-4,5,6,7-tetrahydro-1-benzothiophene-3-carboxamide]",< 1000
13,"Cn1nc(C(F)F)cc1Nc1nncn1[C@H]1CCc2sc(NC(=O)C3CC3)c(C(=O)NC[C@@H]3CC3(C)C)c2C1 (relative stereo) [Example 372, (5S)-2-(cyclopropanecarbonylamino)-5-[3-[[5-(difluoromethyl)-2-methylpyrazol-3-yl]amino]-1,2,4-triazol-4-yl]-N-[[(1R*)-2,2-dimethylcyclopropyl]methyl]-4,5,6,7-tetrahydro-1-benzothiophene-3-carboxamide (* or S)]",< 1000
14,"CS(=O)(=O)c1cccc(Nc2nncn2[C@H]2CCc3sc(NC(=O)C4CC45CC5)c(C(=O)NCC4CC4)c3C2)n1 (single isomer, unassigned) [Example 256, (5S)—N-(cyclopropylmethyl)-5-[3-[(6-methylsulfonyl-2-pyridyl)amino]-1,2,4-triazol-4-yl]-2-[[(2S*)-spiro[2.2]pentane-2-carbonyl]amino]-4,5,6,7-tetrahydrobenzothiophene-3-carboxamide]",< 1000
15,"Cn1nc(C(F)F)cc1Nc1nncn1[C@H]1CCc2sc(NC(=O)[C@H]3C[C@H](F)C3)c(C(=O)NC[C@H]3C[C@@H]3F)c2C1 [Example 471, (5S)-5-[3-[[5-(difluoromethyl)-2-methylpyrazol-3-yl]amino]-1,2,4-triazol-4-yl]-2-[trans-(3-fluorocyclobutanecarbonyl)amino]-N-[[(1R,2S)-2-fluorocyclopropyl]methyl]-4,5,6,7-tetrahydro-1-benzothiophene-3-carboxamide]",< 1000
16,"O=C(NCC1CC1)c1c(NC(=O)C2CC2)sc2c1C[C@@H](n1cnnc1NC1CCS(=O)(=O)C1)CC2 (single isomer, unassigned) [Example 234, (5S)-2-(cyclopropanecarbonylamino)-N-(cyclopropylmethyl)-5-[3-[[(3S*)-1,1-dioxothiolan-3-yl]amino]-1,2,4-triazol-4-yl]-4,5,6,7-tetrahydrobenzothiophene-3-carboxamide]",< 1000
17,"Cn1nc(C(F)F)cc1Nc1nncn1[C@H]1CCc2sc(NC(=O)[C@H]3C[C@H](F)C3)c(C(=O)N[C@H]3C[C@H](F)C3)c2C1 (single isomer, unassigned) [Example 476]",< 1000
18,"Cn1nc(OC(F)F)cc1Nc1nncn1[C@H]1CCc2sc(NC(=O)[C@@H]3C[C@@H]3F)c(C(=O)NCC3CC3)c2C1 (single isomer, unassigned) [Example 350]",< 1000
19,"CS(=O)(=O)c1cccc(Nc2nncn2[C@H]2CCc3sc(NC(=O)C4CC4)c(C(=O)NCC4CC4)c3C2)c1 [Example 250, (5S)-2-(cyclopropanecarbonylamino)-N-(cyclopropylmethyl)-5-[3-(3-methylsulfonylanilino)-1,2,4-triazol-4-yl]-4,5,6,7-tetrahydrobenzothiophene-3-carboxamide]",< 1000
